This is an account of results in US8999243B2, “Blood coagulation system analyzing method and blood coagulation system analyzing device” (Sony Corporation, priority 2011, dated 2015).

The structures appear in SMILES notation.

In assay [1] the test system is platelets in sample blood / platelet poor blood. Put plainly: Rheometer (free damped oscillation type) measurement of viscoelasticity change / coagulation time. Type of assay: cell-based, human. As for the experimental part:
By using an evacuated blood collection tube treated with use of sodium citrate as an anticoagulant, blood was collected from the healthy person and the patient with thrombocytopenia (the number of platelets in 1 μL of blood was 1.2×10^4) as a whole blood sample. Furthermore, blood cells and platelets were separated from the whole blood sample to prepare platelet poor plasma. The sample blood was centrifuged under a condition of 500 G and five minutes to be separated into blood cells and platelet rich plasma (PRP). The plasma was centrifuged under a condition of 2000 G and 30 minutes and sedimentation of the platelets was caused to obtain the platelet poor plasma (PPP). Measurement was performed by using a rheometer of the free damped oscillation type. The coagulation time was obtained by observing a change in the viscoelasticity and compared with the result by the dielectric measurement.

Assay [2] concerns platelets in sample blood (whole blood). Briefly: Dielectric measurement (complex permittivity) of blood coagulation with platelet activating agent. Type of assay: cell-based, human. The note with it: frequency 10.7 MHz. Here is the method:
By using an evacuated blood collection tube treated with use of sodium citrate as an anticoagulant, blood was collected from the healthy person and the patient with thrombocytopenia (the number of platelets in 1 μL of blood was 1.2×10^4) as a whole blood sample. Next, 0.25 M of a calcium chloride aqueous solution was added (85 μL per 1 mL of blood) to the sample blood whose temperature was kept at 37° C. and a blood coagulation reaction was started. The platelet activating agent (ADP) was so added as to be mixed in the calcium chloride aqueous solution (10 μM per 1 mL of blood). Immediately after the start of the blood coagulation reaction, measurement was performed for 60 minutes by using an impedance analyzer (Agilent Corporation, 4294A) under the following condition: temperature was 37° C.; frequency range was 40 Hz to 110 MHz; and measurement time interval was one minute.

For the compound `Nc1ncnc2c1ncn2[C@@H]1O[C@H](COP(=O)(O)OP(=O)(O)O)[C@@H](O)[C@H]1O` [ADP, adenosine diphosphate], the figures for the “change of coagulation time due to ADP addition (rheometer)” value in assay [1] (platelet poor blood (cleaned red blood cells added to platelet poor plasma)) and in assay [1] (sample blood of the healthy person) were “not observed” and “shortening of the coagulation time”, respectively. Besides, in assay [2] (sample blood of patient with thrombocytopenia (1.2×10^4 platelets in 1 μL), ADP added), the “coagulation time with ADP addition” value is 38 min. Moreover, the results for the “change of coagulation time due to ADP addition (dielectric measurement)” value in assay [2] (sample blood of patient with thrombocytopenia) and in assay [2] (sample blood of plural healthy persons) were “shortening of the coagulation time was found” and “shortening of the coagulation time”, respectively. Further, the “average of the coagulation time when the ADP was added” value in assay [2] (sample blood of plural healthy persons, ADP 10 μM per 1 mL of blood in calcium chloride solution, 37° C., without ADP 31 minutes) is 17 min.
